Reference: ChEMBL document CHEMBL1201862, “PubChem BioAssay data set” (2004)
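Method: 48-hour compound exposure of cells in 96-well plates, five concentrations, linear interpolation of endpoints. Abbreviation: GI50, concentration required for 50% inhibition of growth.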 Active and inactive are the calls of the source. Cut-off read from the data, not from the text of the source: active = GI50 up to about 1.1 µM and inactive = higher.

How the values were obtained:
Assay in all cases: DTP human tumour cell line panel, 48 h
UACC-62 = tested on: UACC-62
HCT-116 = tested on: HCT-116
SK-MEL-2 = tested on: SK-MEL-2
SNB-19 = tested on: SNB-19
TK-10 = tested on: TK-10
KM12 = tested on: KM12
ACHN = tested on: ACHN
HCT-15 = tested on: HCT-15
NCI-H23 = tested on: NCI-H23
OVCAR-5 = tested on: OVCAR-5
HCC 2998 = tested on: HCC 2998
OVCAR-4 = tested on: OVCAR-4
A498 = tested on: A498
IGROV-1 = tested on: IGROV-1
NCI-H460 = tested on: NCI-H460
U-251 = tested on: U-251
HOP-92 = tested on: HOP-92
SF-268 = tested on: SF-268
SK-MEL-28 = tested on: SK-MEL-28
RXF 393 = tested on: RXF 393

Row | SMILES | GI50 (UACC-62) | GI50 (HCT-116) | GI50 (SK-MEL-2) | GI50 (SNB-19) | GI50 (TK-10) | GI50 (KM12) | GI50 (ACHN) | GI50 (HCT-15) | GI50 (NCI-H23) | GI50 (OVCAR-5) | GI50 (HCC 2998) | GI50 (OVCAR-4) | GI50 (A498) | GI50 (IGROV-1) | GI50 (NCI-H460) | GI50 (U-251) | GI50 (HOP-92) | GI50 (SF-268) | GI50 (SK-MEL-28) | GI50 (RXF 393)
1 | O=Cc1ccc2c(c1I)OCO2 | > 100 µM (inactive) | > 100 µM (inactive) | > 100 µM (inactive) | > 100 µM (inactive) | > 100 µM (inactive) | > 100 µM (inactive) | > 100 µM (inactive) | > 100 µM | > 100 µM (inactive) | > 100 µM (inactive) | > 100 µM (inactive) | > 100 µM (inactive) | > 100 µM (inactive) | > 100 µM (inactive) | > 100 µM (inactive) | > 100 µM (inactive) |  |  |  | 
2 | O=C1OC(CN2CCOCC2)CN1/N=C/c1ccc([N+](=O)[O-])o1 (centres undefined) [FURALTADONE] | 34 µM (inactive) | 19.1 µM (inactive) | 69.3 µM (inactive) | 86.1 µM (inactive) | > 100 µM (inactive) | 18.5 µM (inactive) | 35.6 µM (inactive) | 17 µM | 22.9 µM (inactive) | 61.5 µM (inactive) |  | 45.5 µM (inactive) |  | 32.3 µM (inactive) | 31.4 µM (inactive) | 31.6 µM (inactive) | 64.4 µM (inactive) | 60.3 µM (inactive) | > 100 µM (inactive) | 
3 | COc1ccc2nc3c(C)cc4ccccc4n3c2c1 | > 100 µM (inactive) | 41.6 µM (inactive) |  | > 100 µM (inactive) | 80.2 µM (inactive) | > 100 µM (inactive) | 47.3 µM (inactive) | 56.5 µM | > 100 µM (inactive) | > 100 µM (inactive) | > 100 µM (inactive) |  | 11.9 µM (inactive) | 29.2 µM (inactive) | 25.3 µM (inactive) | 44.7 µM (inactive) | 50.8 µM (inactive) | 86.9 µM (inactive) | > 100 µM (inactive) | 25.8 µM (inactive)
4 | CC(=O)OCCOCn1cc(C=O)c2ccccc21 | > 100 µM (inactive) | > 100 µM (inactive) | > 100 µM (inactive) | > 100 µM (inactive) | > 100 µM (inactive) | > 100 µM (inactive) | > 100 µM (inactive) | > 100 µM | > 100 µM (inactive) | 67.5 µM (inactive) | > 100 µM (inactive) |  | 1.95 µM (inactive) | > 100 µM (inactive) | 33.2 µM (inactive) | > 100 µM (inactive) | > 100 µM (inactive) | > 100 µM (inactive) | > 100 µM (inactive) | > 100 µM (inactive)
5 | CC(=O)/N=C1\N/C(=C/c2cc([N+](=O)[O-])ccc2O)CN1C | > 100 µM (inactive) | > 100 µM (inactive) | > 100 µM (inactive) | > 100 µM (inactive) | > 100 µM (inactive) | > 100 µM (inactive) | > 100 µM (inactive) | > 100 µM | > 100 µM (inactive) | > 100 µM (inactive) | > 100 µM (inactive) | > 100 µM (inactive) |  | > 100 µM (inactive) | > 100 µM (inactive) | > 100 µM (inactive) | > 100 µM (inactive) |  | > 100 µM (inactive) | 
6 | COc1ccc(-c2cc(C(=O)Nc3cc(C(F)(F)F)cc(C(F)(F)F)c3)c3ccccc3n2)cc1 | 21.6 µM (inactive) | 6.19 µM (inactive) | 12.9 µM (inactive) |  | 13.9 µM (inactive) | 13.2 µM (inactive) | 12.5 µM (inactive) | 11.4 µM | 5.9 µM (inactive) | 24.7 µM (inactive) | 11.4 µM (inactive) | 8.3 µM (inactive) | 15.1 µM (inactive) | 12.6 µM (inactive) | 5.42 µM (inactive) | 4.28 µM (inactive) |  | 14.4 µM (inactive) | 27.7 µM (inactive) | 5.12 µM (inactive)
7 | CCOc1ncn(-c2ccc(NC(=S)Nc3cccc(O)c3)cc2)n1 | > 100 µM (inactive) | > 100 µM (inactive) |  | > 100 µM (inactive) | > 100 µM (inactive) | > 100 µM (inactive) |  | > 100 µM | > 100 µM (inactive) | > 100 µM (inactive) | > 100 µM (inactive) | > 100 µM (inactive) |  | > 100 µM (inactive) | > 100 µM (inactive) | > 100 µM (inactive) | > 100 µM (inactive) | > 100 µM (inactive) | > 100 µM (inactive) | 
8 | C=CCN(C)CN(C)c1nc(N(C)C)nc(N(C)C)n1 | > 100 µM (inactive) | 60.7 µM (inactive) | > 100 µM (inactive) | > 100 µM (inactive) | > 100 µM (inactive) | > 100 µM (inactive) | > 100 µM (inactive) | 34.3 µM | > 100 µM (inactive) | > 100 µM (inactive) | 53.2 µM (inactive) | 79.8 µM (inactive) | > 100 µM (inactive) | > 100 µM (inactive) | 11.8 µM (inactive) | > 100 µM (inactive) | > 100 µM (inactive) | > 100 µM (inactive) | > 100 µM (inactive) | 
9 | COc1cc(OC)cc(Oc2nc3cc(F)c(F)cc3nc2-c2ccccc2)c1 | > 100 µM (inactive) | > 100 µM (inactive) | > 100 µM (inactive) | > 100 µM (inactive) | > 100 µM (inactive) | > 100 µM (inactive) | > 100 µM (inactive) | > 100 µM | > 100 µM (inactive) | > 100 µM (inactive) |  | > 100 µM (inactive) | > 100 µM (inactive) | > 100 µM (inactive) | > 100 µM (inactive) | > 100 µM (inactive) | > 100 µM (inactive) | > 100 µM (inactive) | > 100 µM (inactive) | > 100 µM (inactive)
10 | CC12CCC(=O)N1c1cnccc1N2 (centres undefined) | > 100 µM (inactive) | > 100 µM (inactive) | > 100 µM (inactive) | > 100 µM (inactive) | > 100 µM (inactive) | > 100 µM (inactive) | > 100 µM (inactive) | > 100 µM | > 100 µM (inactive) | > 100 µM (inactive) | > 100 µM (inactive) | > 100 µM (inactive) | > 100 µM (inactive) | > 100 µM (inactive) | > 100 µM (inactive) | > 100 µM (inactive) | > 100 µM (inactive) | > 100 µM (inactive) | > 100 µM (inactive) | 
11 | CCOC(=O)/C=C1/C(CCCOCc2ccccc2)C2CCCC23CC2(CCN13)OCCO2 (centres undefined) | 15.2 µM (inactive) |  | 17 µM (inactive) | 33.3 µM (inactive) | 36.2 µM (inactive) | 22.3 µM (inactive) | 22.3 µM (inactive) | 20.4 µM | 12.5 µM (inactive) | 44 µM (inactive) | 25.8 µM (inactive) | 24.3 µM (inactive) | 19.9 µM (inactive) | 24.7 µM (inactive) | 18.7 µM (inactive) | 20.1 µM (inactive) |  | 42 µM (inactive) | 18.4 µM (inactive) | 6.32 µM (inactive)
12 | CC(=O)c1ccc2c(c1)oc(=O)n2CCN1CCCCC1 | > 100 µM (inactive) | > 100 µM (inactive) | > 100 µM (inactive) | > 100 µM (inactive) | > 100 µM (inactive) | > 100 µM (inactive) | > 100 µM (inactive) | > 100 µM | > 100 µM (inactive) | > 100 µM (inactive) |  |  | > 100 µM (inactive) | > 100 µM (inactive) | > 100 µM (inactive) | > 100 µM (inactive) |  | > 100 µM (inactive) | > 100 µM (inactive) | > 100 µM (inactive)
13 | CC(=O)OC1CCn2nnc(CO)c21 (centres undefined) | > 100 µM (inactive) | > 100 µM (inactive) | > 100 µM (inactive) | > 100 µM (inactive) | > 100 µM (inactive) | > 100 µM (inactive) |  | > 100 µM | > 100 µM (inactive) | > 100 µM (inactive) | > 100 µM (inactive) | > 100 µM (inactive) |  | > 100 µM (inactive) | > 100 µM (inactive) | > 100 µM (inactive) | > 100 µM (inactive) |  | > 100 µM (inactive) | > 100 µM (inactive)
14 | Nc1c(-c2cn(Cc3ccccc3)c3ccccc23)[n+]([O-])c2ccccc2[n+]1[O-] | 23.6 µM (inactive) |  | 23.1 µM (inactive) | 36.6 µM (inactive) | 28.3 µM (inactive) | 28.8 µM (inactive) | 15.5 µM (inactive) | 27.2 µM | 22 µM (inactive) | 25.6 µM (inactive) | 35.8 µM (inactive) | 43.6 µM (inactive) | 18.4 µM (inactive) | 21.7 µM (inactive) | 28.5 µM (inactive) | 32.5 µM (inactive) | 8.79 µM (inactive) | 21.5 µM (inactive) | 25.4 µM (inactive) | 
15 | N#C/C(=C1\OC(=O)C(c2ccc(Br)cc2)=C1O)c1ccc(Br)cc1 | 11.6 µM (inactive) | 17.3 µM (inactive) |  | 14.4 µM (inactive) | 22.1 µM (inactive) | 14.9 µM (inactive) | 15.7 µM (inactive) |  | 12.9 µM (inactive) | 19.1 µM (inactive) | 15.5 µM (inactive) | 16.5 µM (inactive) | 15.5 µM (inactive) | 14.2 µM (inactive) | 15.7 µM (inactive) | 13.2 µM (inactive) | 16.1 µM (inactive) | 14.7 µM (inactive) | 17.2 µM (inactive) | 12 µM (inactive)
16 | CCOC(=O)NC(Nc1ccc(C)cc1)(C(F)(F)F)C(F)(F)F | > 100 µM (inactive) | > 100 µM (inactive) |  | > 100 µM (inactive) | > 100 µM (inactive) | > 100 µM (inactive) | > 100 µM (inactive) | > 100 µM | > 100 µM (inactive) | > 100 µM (inactive) | > 100 µM (inactive) | > 100 µM (inactive) | > 100 µM (inactive) | > 100 µM (inactive) | > 100 µM (inactive) | > 100 µM (inactive) | > 100 µM (inactive) | > 100 µM (inactive) | > 100 µM (inactive) | 
